Where two headings read alike, the source gives them in different places.
System: human multiple myeloma cell line, OPM-2
Assay: Cell viability assay (OPM-2 10 FBS), CellTiter-Glo
Format: cell-based
Protocol: Cell viability assay (OPM-2 10 FBS)
The human multiple myeloma cell line, OPM-2, was cultured in complete growth medium containing RPMI 1640 and 10% fetal bovine serum (FBS). Cells were seeded into 384-well plates at 3000 cells/well density in complete growth medium containing 10% FBS, and incubated for 16 h with serially diluted test compounds in a 37° C. incubator with 5% CO2. Cell viability was tested using CellTiter-Glo® assay (Promega, Madison, Wis.) according to the manufacturer recommendations. Luminescence was determined using an EnVision® Multilabel plate reader 25 min after the addition of detection reagent. IC50 values were then calculated with Xlfit using a logistical 4-parameter fit model in GraphPad Prism (GraphPad Software, San Diego, Calif.) or in Genedata Screener® (Genedata, Basel, Switzerland).

[1] = Homo sapiens, OPM-2, 16 h, read-out: OPM-2 10% FBS IC50 IP, OPM-2 cells, 10% FBS, 16 h, CellTiter-Glo
[2] = Homo sapiens, OPM-2, 16 h, read-out: OPM-2 10% FBS IC50 IP, OPM-2 cells, 10% FBS, 16 h incubation
[3] = read-out: OPM-2 10% FBS IC50 IP, OPM-2 cells, 10% FBS, 16 h, CellTiter-Glo

| Compound | IC50 [2] [nM] | further results |
| --- | --- | --- |
| COC(=O)C(C)(C)NC(=O)C[C@]1(OC)/C=C/C[C@H](C)[C@@H](C)S(=O)(=O)NC(=O)c2ccc3c(c2)N(C[C@@H]2CC[C@H]21)C[C@@]1(CCCc2cc(Cl)ccc21)CO3 [Example 100544, methyl N-(((1S,3′R,6′R,7′S,8′E,11′S,12′R)-6-chloro-7′-methoxy-11′,12′-dimethyl-13′,13′-dioxido-15′-oxo-3,4-dihydro-2H-spiro[naphthalene-1,22′-[20]oxa[13]thia[1,14]diazatetracyclo [14.7.2.0~3,6~.0~19,24~]pentacosa[8,16,18,24]tetraen]-7′-yl)acetyl)-2-methylalaninate] |  | IC50 [1]: 306 nM |
| COCC(COC)N1CCN(C[C@]2(OC)/C=C/C[C@H](C)[C@@H](C)S(=O)(=O)NC(=O)c3ccc4c(c3)N(C[C@@H]3CC[C@H]32)C[C@@]2(CCCc3cc(Cl)ccc32)CO4)CC1 [Example 287, (1S,3′R,6′R,7′S,8′E,11′S,12′R)-6-chloro-7′-methoxy-7′-((4-(2-methoxy-1-(methoxymethyl)ethyl)-1-piperazinyl)methyl)-11′,12′-dimethyl-3,4-dihydro-2H,15′H-spiro[naphthalene-1,22′-[20]oxa[13]thia[1,14]diazatetracyclo [14.7.2.0~3,6~.0~19,24~]pentacosa[8,16,18,24]tetraen]-15′-one 13′,13′-dioxide] | 50 |  |
| CO[C@@]1(CNCCN2CCOCC2)/C=C/C[C@H](C)[C@@H](C)S(=O)(=O)NC(=O)c2ccc3c(c2)N(C[C@@H]2CC[C@H]21)C[C@@]1(CCCc2cc(Cl)ccc21)CO3 [Example 34, (1 S,3′R,6′R,7′S,8′E,11′S,12′R)-6-chloro-7′-methoxy-11′,12′-dimethyl-7′-(((2-(4-morpholinyl)ethyl)amino)methyl)-3,4-dihydro-2H, 15′H-spiro[naphthalene-1,22′-[20]oxa[13]thia[1,14]diazatetracyclo[14.7.2.0˜3,6˜.0˜19,24˜]pentacosa[8,16,18,24]tetraen]-15′-one 13′,13′-dioxide] | 379 |  |
| COCCN(CCOC)C1CCN(C[C@]2(OC)/C=C/C[C@H](C)[C@@H](C)S(=O)(=O)NC(=O)c3ccc4c(c3)N(C[C@@H]3CC[C@H]32)C[C@@]2(CCCc3cc(Cl)ccc32)CO4)CC1 [Example 308, (1S,3′R,6′R,7′S,8′E,11′S,12′R)-7′-((4-(bis(2-methoxyethyl)amino)-1-piperidinyl)methyl)-6-chloro-7′-methoxy-11′,12′-dimethyl-3,4-dihydro-2H,15′H-spiro[naphthalene-1,22′-[20]oxa[13]thia[1,14]diazatetracyclo [14.7.2.0~3,6~.0~19,24~]pentacosa[8,16,18,24]tetraen]-15′-one 13′,13′-dioxide] | 70 |  |
| C[C@@H]1[C@@H](C)C/C=C/[C@@](O)(C#C[Si](C)(C)C)[C@@H]2CC[C@H]2CN2C[C@@]3(CCCc4cc(Cl)ccc43)COc3ccc(cc32)C(=O)NS1(=O)=O [Example 100243, (1S,3′R,6′R,7′S,8′E,11′S,12′R)-6-chloro-7′-hydroxy-11′,12′-dimethyl-7′-((trimethylsilyl)ethynyl)-3,4-dihydro-2H,15′H-spiro[naphthalene-1,22′-[20]oxa[13]thia[1,14]diazatetracyclo [14.7.2.0~3,6~.0~19,24~]pentacosa[8,16,18,24]tetraen]-15′-one 13′,13′-dioxide] |  | IC50 [3]: 8670 nM |
| CCO[C@]1(CN2CCN(C3COC3)CC2)/C=C/C[C@H](C)[C@@H](CCOC)S(=O)(=O)NC(=O)c2ccc3c(c2)N(C[C@@H]2CC[C@H]21)C[C@@]1(CCCc2cc(Cl)ccc21)CO3 [Example 14, (1S,3′R,6′R,7′R,8′E,11′S,12′R)-6-chloro-7′-ethoxy-12′-(2-methoxyethyl)-11′-methyl-7′-((4-(3-oxetanyl)-1-piperazinyl)methyl)-3,4-dihydro-2H,15′H-spiro[naphthalene-1,22′-[20]oxa[13]thia[1,14]diazatetracyclo[14.7.2.0-3,6˜.0˜19,24˜]pentacosa[8,16,18,24]tetraen]-15′-one 13′,13′-dioxide] | 59 |  |
| CO[C@@]1(CN2CCN3CCN(S(C)(=O)=O)C[C@@H]3C2)/C=C/C[C@H](C)[C@@H](C)S(=O)(=O)NC(=O)c2ccc3c(c2)N(C[C@@H]2CC[C@H]21)C[C@@]1(CCCc2cc(Cl)ccc21)CO3 [Example 228] | 93.1 |  |
| C[C@@H]1[C@@H](C)C/C=C/[C@@](O)(CNC(C)(C)C)[C@@H]2CC[C@H]2CN2C[C@@]3(CCCc4cc(Cl)ccc43)COc3ccc(cc32)C(=O)NS1(=O)=O [Example 125, (1S,3′R,6′R,7′S,8′E,11′S,12′R)-7′-((tert-butylamino)methyl)-6-chloro-7′-hydroxy-11′,12′-dimethyl-3,4-dihydro-2H,15′H-spiro[naphthalene-1,22′-[20]oxa[13]thia[1,14]diazatetracyclo[14.7.2.0-3,6˜.0˜19,24˜]pentacosa[8,16,18,24]tetraen]-15′-one 13′,13′-dioxide] | 1480 |  |
| CCO[C@@]1(CN2CCN3CCCC[C@@H]3C2)/C=C/C[C@H](C)[C@@H](CCOC)S(=O)(=O)NC(=O)c2ccc3c(n2)N(C[C@@H]2CC[C@H]21)C[C@@]1(CCCc2cc(Cl)ccc21)CO3 [Example 370, (1S,3′R,6′R,7′S,8′E,11′S,12′R)-6-chloro-7′-ethoxy-12′-(2-methoxyethyl)-11′-methyl-7′-((9aR)-octahydro-2H-pyrido[1,2-a]pyrazin-2-ylmethyl)-3,4-dihydro-2H,15′H-spiro[naphthalene-1,22′-[20]oxa[13]thia[1,14,25]triazatetracyclo [14.7.2.0~3,6~.0~19,24~]pentacosa[8,16,18,24]tetraen]-15′-one 13′,13′-dioxide] | 369 |  |
| C[C@@H]1[C@@H](C)CCC[C@@](O)(CC(=O)N2CCC2)[C@@H]2CC[C@H]2CN2C[C@@]3(CCCc4cc(Cl)ccc43)COc3ccc(cc32)C(=O)NS1(=O)=O [Example 100144, (1S,3′R,6′R,7′R,11′S,12′R)-7′-(2-(1-azetidinyl)-2-oxoethyl)-6-chloro-7′-hydroxy-11′,12′-dimethyl-3,4-dihydro-2H,15′H-spiro[naphthalene-1,22′-[20]oxa[13]thia[1,14]diazatetracyclo [14.7.2.0~3,6~.0~19,24~]pentacosa[16,18,24]trien]-15′-one 13′,13′-dioxide] |  | IC50 [3]: 208 nM |
| CO[C@@]1(CC(=O)C2CC2)/C=C/C[C@H](C)[C@@H](C)S(=O)(=O)NC(=O)c2ccc3c(c2)N(C[C@@H]2CC[C@H]21)C[C@@]1(CCCc2cc(Cl)ccc21)CO3 [Example 100443, (1S,3′R,6′R,7′S,8′E,11′S,12′R)-6-chloro-7′-(2-cyclopropyl-2-oxoethyl)-7′-methoxy-11′,12′-dimethyl-3,4-dihydro-2H,15′H-spiro[naphthalene-1,22′-[20]oxa[13]thia[1,14]diazatetracyclo [14.7.2.0~3,6~.0~19,24~]pentacosa[8,16,18,24]tetraen]-15′-one 13′,13′-dioxide] |  | IC50 [1]: 156 nM |
| CC[C@@H]1CC/C=C/[C@@](CN2CCN3CCCC[C@@H]3C2)(OC)[C@@H]2CC[C@H]2CN2C[C@@]3(CCCc4cc(Cl)ccc43)COc3ccc(cc32)C(=O)N(C)S1(=O)=O [Example 33, (1 S,3′R,6′R,7′R,8′E,12′R)-6-chloro-12′-ethyl-7′-methoxy-14′-methyl-7′-((9aR)-octahydro-2H-pyrido[1,2-a]pyrazin-2-ylmethyl)-3,4-dihydro-2H,15′H-spiro[naphthalene-1,22′-[20]oxa[13]thia[1,14]diazatetracyclo[14.7.2.0-3,6˜.0˜19,24˜]pentacosa[8,16,18,24]tetraen]-15′-one 13′,13′-dioxide] | 5570 |  |

Source: US10821115B2, “Compounds that inhibit Mcl-1 protein” (priority 2017, dated 2020)
